Data from ChEMBL document CHEMBL4507280 (2021).

Legend:
Settings in all cases: Compound concentration 10.0 uM
[1] = target: ATP-sensitive inward rectifier potassium channel 1 isoform X1 (Mesocricetus auratus) (UniProt A0A1U8CU73); experiment: K+/KATP/HA Eurofins-Panlabs selectivity data (BI)
[2] = target: Alpha-1D adrenergic receptor (Homo sapiens) (UniProt P25100)
[3] = target: 3',5'-cyclic-AMP phosphodiesterase 4A (Rattus norvegicus) (UniProt P54748); experiment: ROLIPRAM/R Eurofins-Panlabs selectivity data (BI)
[4] = target: Acetylcholine receptor subunit alpha (Homo sapiens) (UniProt P02708); experiment: NACH/H Eurofins-Panlabs selectivity data (BI)
Chain of Acetylcholine receptor subunit alpha (Homo sapiens) (P02708 whole entry): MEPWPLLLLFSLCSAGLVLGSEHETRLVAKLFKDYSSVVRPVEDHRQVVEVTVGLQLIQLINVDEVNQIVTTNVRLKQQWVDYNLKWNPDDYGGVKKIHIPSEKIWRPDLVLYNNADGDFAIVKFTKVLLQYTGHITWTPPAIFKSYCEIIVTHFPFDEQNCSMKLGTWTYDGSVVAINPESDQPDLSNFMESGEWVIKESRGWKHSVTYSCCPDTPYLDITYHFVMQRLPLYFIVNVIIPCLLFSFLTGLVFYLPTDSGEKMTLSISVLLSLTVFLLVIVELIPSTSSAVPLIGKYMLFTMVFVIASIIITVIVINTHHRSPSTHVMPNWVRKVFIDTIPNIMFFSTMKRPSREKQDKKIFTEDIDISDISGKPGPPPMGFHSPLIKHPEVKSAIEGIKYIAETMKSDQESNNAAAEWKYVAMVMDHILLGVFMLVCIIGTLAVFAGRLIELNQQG

Chain of Alpha-1D adrenergic receptor (Homo sapiens) (P25100 whole entry): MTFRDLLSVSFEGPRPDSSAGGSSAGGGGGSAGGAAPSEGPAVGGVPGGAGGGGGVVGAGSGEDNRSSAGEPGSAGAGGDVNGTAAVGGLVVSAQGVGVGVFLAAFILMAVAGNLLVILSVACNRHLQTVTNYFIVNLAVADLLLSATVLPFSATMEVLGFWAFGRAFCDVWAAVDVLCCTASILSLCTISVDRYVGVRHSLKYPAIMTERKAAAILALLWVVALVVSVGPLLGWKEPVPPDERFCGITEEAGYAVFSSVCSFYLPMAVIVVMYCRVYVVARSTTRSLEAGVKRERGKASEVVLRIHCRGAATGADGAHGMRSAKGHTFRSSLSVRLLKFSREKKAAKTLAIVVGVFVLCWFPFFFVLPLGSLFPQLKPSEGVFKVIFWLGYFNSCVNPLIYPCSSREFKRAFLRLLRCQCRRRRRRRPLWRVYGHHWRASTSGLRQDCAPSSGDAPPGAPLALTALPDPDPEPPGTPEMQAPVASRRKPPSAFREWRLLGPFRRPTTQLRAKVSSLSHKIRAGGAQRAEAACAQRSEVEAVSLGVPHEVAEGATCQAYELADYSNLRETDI
Chain of 3',5'-cyclic-AMP phosphodiesterase 4A (Rattus norvegicus) (P54748 whole entry): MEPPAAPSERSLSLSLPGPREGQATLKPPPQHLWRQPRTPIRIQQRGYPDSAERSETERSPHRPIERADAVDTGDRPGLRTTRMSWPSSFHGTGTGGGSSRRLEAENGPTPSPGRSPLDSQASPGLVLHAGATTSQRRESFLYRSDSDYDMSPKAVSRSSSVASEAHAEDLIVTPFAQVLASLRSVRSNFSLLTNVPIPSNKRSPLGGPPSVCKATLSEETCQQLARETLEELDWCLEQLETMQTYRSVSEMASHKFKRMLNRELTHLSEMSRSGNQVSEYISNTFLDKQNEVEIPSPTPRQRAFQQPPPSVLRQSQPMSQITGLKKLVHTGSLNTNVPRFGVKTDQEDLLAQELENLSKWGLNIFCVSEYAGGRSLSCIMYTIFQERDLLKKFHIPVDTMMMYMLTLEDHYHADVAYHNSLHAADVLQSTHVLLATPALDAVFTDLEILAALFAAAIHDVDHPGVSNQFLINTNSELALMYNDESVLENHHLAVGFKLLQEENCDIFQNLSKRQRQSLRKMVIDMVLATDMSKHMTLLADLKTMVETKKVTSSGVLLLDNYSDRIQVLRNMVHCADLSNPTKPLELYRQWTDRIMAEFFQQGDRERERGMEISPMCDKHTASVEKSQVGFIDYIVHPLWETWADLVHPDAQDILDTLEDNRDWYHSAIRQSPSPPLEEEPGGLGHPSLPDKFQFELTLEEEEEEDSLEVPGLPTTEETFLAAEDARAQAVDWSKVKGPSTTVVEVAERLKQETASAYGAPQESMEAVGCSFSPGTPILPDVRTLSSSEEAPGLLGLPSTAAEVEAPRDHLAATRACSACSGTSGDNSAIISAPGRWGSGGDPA
Chain of ATP-sensitive inward rectifier potassium channel 1 isoform X1 (Mesocricetus auratus) (A0A1U8CU73 as listed by the source): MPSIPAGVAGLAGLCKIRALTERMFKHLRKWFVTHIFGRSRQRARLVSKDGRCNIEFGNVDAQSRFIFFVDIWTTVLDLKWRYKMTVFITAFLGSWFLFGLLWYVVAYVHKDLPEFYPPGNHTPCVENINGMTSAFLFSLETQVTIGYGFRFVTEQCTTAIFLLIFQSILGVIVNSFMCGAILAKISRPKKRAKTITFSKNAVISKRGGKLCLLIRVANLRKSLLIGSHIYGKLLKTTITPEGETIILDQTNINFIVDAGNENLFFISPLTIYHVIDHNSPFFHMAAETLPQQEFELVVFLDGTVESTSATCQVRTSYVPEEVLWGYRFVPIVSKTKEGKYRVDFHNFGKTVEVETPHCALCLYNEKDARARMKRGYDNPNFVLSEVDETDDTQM

CCC(=O)N[C@H]1CC[C@@H](C(=O)N(C)c2ccc(-c3nc4ccccc4o3)cc2)C1 [BI 99179]
inactive: residual activity [1] 88% | inhibition [2] 50% | residual activity [3] 83% | residual activity [4] 113%
